Experimental data: patent publication US20110306621A1, “ACYLGUANIDINE DERIVATIVES” (priority 2009, published 2011)

Target: T1, human 5-HT5A receptor (Homo sapiens, UniProt P47898)
T1 construct: expressed in transfected cells; membranes used
Experiment: Test on a human 5-HT5A receptor binding inhibition ([3H]5-CT)
Settings: membrane from HEK293 cells for forced expression of human 5-HT5A receptor; Ki calculated from IC50 and Kd of [3H]5-CT (4.95 nM)
Method: The ORF (open reading frame; protein coding region) of a human 5-HT5A receptor (Genbank AF498985) was cloned from a human hippocampus cDNA library, and then inserted into a pCR2.1 vector (Invitrogen), and Escherichia coli containing the plasmid was cultured in a large amount. Next, the full-length cDNA sequence of the human 5-HT5A receptor was analyzed, and recombined into a pcDNA3.1 vector (Invitrogen) as an expression vector and cultured in a large amount. HEK293 established cells (ATCC) derived from the human fetal kidney were seeded, the expression plasmid (1 μg) obtained above were added thereto with LIPOFECTAMINE 2000 (Invitrogen; 2 μl), the gene was transfected into HEK293 cells, and the expression cells were screened with a drug-resistant marker, Geneticin (G418 sulfate 500 μg/ml; Kanto Chemical Co., Inc.). Thus prepared recombinant cells which expressed the gene were cultured in a medium containing D-MEM (Dulbecco's modified eagle medium, Sigma), 10% FCS (Fetal calf serum: fetal bovine serum), 1% Pc./Sm (Penicillin/Streptomycin, Invitrogen), and 500 μg/ml G418 for 3 days. These experimental operations followed a manual for gene operation experiment and an instruction appended in a reagent, and the like, such as a known method (Sambrook, J. et al, Molecular Cloning-A Laboratory Manual”, Cold Spring Harabor laboratory, NY, 1989).
HEK293 cells for forced expressions of a human 5-HT5A receptor were cultured in a F500 plate, and scraped with a scraper. After centrifugation, the precipitate was collected, and an incubation buffer (50 mM Tris (HCl) (pH 7.4), 10 mM MgSO4, and 0.5 mM EDTA (ethylenediamine tetraacetic acid)) was added thereto. After homogenization, it was further centrifuged, and the incubation buffer was added to the precipitate, followed by thoroughly suspending. The operation was repeated, and protein concentration was measured, thereby completing preparation of the membrane.
A solution of the compound to be tested and 100 μM 5-CT (5-carboxamidetriptamine) in DMSO was added to a 96-well plate at 2 μl/well, suspended in an incubation buffer, and a membrane from HEK293 cells for forced expressions of a human 5-HT5A receptor prepared at 200 μg/ml was added at 100 μl/well. After incubation at room temperature for 15 minutes, a [^3H]5-CT solution (2 nM [^3H]5-CT, incubation buffer) was added thereto at 100 μl/well.
Separately, 100 μl of the solution was distributed into a liquid scintillation vial, and 2 ml of Aquasol II (registered trademark) was added thereto, followed by stirring. Then, radioactivity was measured by a liquid scintillation counter. It was incubated at 37° C. for 60 minutes. The reaction mixture was sucked into 96-well GF/C filter plate that had been pre-treated with 0.2% polyethyleneimine, and washed six times with an ice-cooled, 50 mM Tris (pH 7.5) buffer. The GF/C filter plate was dried.
Microscint TMPS (registered trademark) was added thereto at 40 μl/well. Radioactivity remaining on the GF/C filter plate was measured by a top counter.
The [^3H]5-CT binding inhibiting activity by the compound to be tested in each experiment was determined as an IC50 value with a radioactivity upon addition of DMSO alone being 0% inhibition, and a radioactivity upon addition of 1 μM 5-CT being 100% inhibition. Separately, Ki values were calculated from the Kd value of the [^3H]5-CT determined from Scatchard analysis, by the following equation.
Ki=IC50 (1+Concentraion of ligand added/Kd (4.95 nM))

T1 sequence (P47898 whole entry): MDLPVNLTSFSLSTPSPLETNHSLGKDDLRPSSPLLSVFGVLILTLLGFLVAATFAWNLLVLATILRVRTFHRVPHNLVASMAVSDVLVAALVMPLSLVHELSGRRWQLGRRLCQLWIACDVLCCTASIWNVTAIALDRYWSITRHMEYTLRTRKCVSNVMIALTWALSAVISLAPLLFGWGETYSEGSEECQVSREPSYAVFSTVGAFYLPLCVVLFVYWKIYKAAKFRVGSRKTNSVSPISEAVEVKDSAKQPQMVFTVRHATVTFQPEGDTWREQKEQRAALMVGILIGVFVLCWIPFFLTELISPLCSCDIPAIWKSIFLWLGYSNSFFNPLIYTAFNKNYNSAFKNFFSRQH

Ki [nM] | Compound
3 to 30 | N#Cc1cc(Cl)ccc1-c1cccc2ccc(C(=O)N=C(N)N)cc12 [Example 33]
3 to 30 | COc1ccc(F)cc1-c1cccc2ccc(C(=O)N=C(N)N)cc12 [Example 34]
0.3 to 3 | NC(N)=NC(=O)c1ccc2cccc(-c3ccc(F)cc3F)c2c1 [Example 35]
0.3 to 3 | NC(N)=NC(=O)c1ccc2cccc(-c3c(F)cccc3F)c2c1 [Example 36]
3 to 30 | NC(N)=NC(=O)c1ccc2cccc(-c3ccc(Cl)nc3Cl)c2c1 [Example 37]
3 to 30 | NC(N)=NC(=O)c1ccc2cccc(-c3cc(Cl)ncc3Cl)c2c1 [Example 38]
30 to 300 | N#Cc1ccc(F)cc1-c1cccc2ccc(C(=O)N=C(N)N)cc12 [Example 39]
3 to 30 | COc1cccc(-c2cccc3ccc(C(=O)N=C(N)N)cc23)c1F [Example 40]
3 to 30 | COc1ccc(F)c(-c2cccc3ccc(C(=O)N=C(N)N)cc23)c1 [Example 41]
0.3 to 3 | COc1cc(F)cc(F)c1-c1cccc2ccc(C(=O)N=C(N)N)cc12 [Example 42]
0.3 to 3 | NC(N)=NC(=O)c1ccc2cccc(-c3c(F)cc(Cl)cc3F)c2c1 [Example 43]
0.3 to 3 | NC(N)=NC(=O)c1ccc2cccc(-c3ccncc3Cl)c2c1 [Example 44]
0.3 to 3 | NC(N)=NC(=O)c1ccc2cccc(-c3c(Cl)cncc3Cl)c2c1 [Example 45]
0.3 to 3 | NC(N)=NC(=O)c1ccc2cccc(-c3cccs3)c2c1 [Example 46]
0.3 to 3 | NC(N)=NC(=O)c1ccc2cccc(-c3ccsc3)c2c1 [Example 47]
0.3 to 3 | Cc1ccsc1-c1cccc2ccc(C(=O)N=C(N)N)cc12 [Example 48]
0.3 to 3 | NC(N)=NC(=O)c1ccc2cccc(-c3sccc3Cl)c2c1 [Example 49]
0.3 to 3 | N#Cc1ccc(-c2cccc3ccc(C(=O)N=C(N)N)cc23)s1 [Example 50]
3 to 30 | N#Cc1sccc1-c1cccc2ccc(C(=O)N=C(N)N)cc12 [Example 51]
3 to 30 | NC(N)=NC(=O)c1ccc2cccc(-c3ccnc(F)c3)c2c1 [Example 52]
3 to 30 | NC(N)=NC(=O)c1ccc2cccc(-c3ccnc(Cl)c3)c2c1 [Example 53]
3 to 30 | NC(N)=NC(=O)c1ccc2cccc(-c3ccc(Cl)nc3)c2c1 [Example 54]

Ki [nM] | Compound
3 to 30 | NC(N)=NC(=O)c1ccc2cccc(-c3cncc(F)c3)c2c1 [Example 55]
3 to 30 | N#Cc1ncccc1-c1cccc2ccc(C(=O)N=C(N)N)cc12 [Example 56]
0.3 to 3 | COc1cc(Cl)ccc1-c1cccc2ccc(C(=O)N=C(N)N)cc12 [Example 57]
0.3 to 3 | NC(N)=NC(=O)c1ccc2cccc(-c3c(Cl)cccc3Cl)c2c1 [Example 58]
0.3 to 3 | NC(N)=NC(=O)c1ccc2cccc(-c3ccc(Cl)cc3F)c2c1 [Example 59]
0.3 to 3 | NC(N)=NC(=O)c1ccc2cccc(-c3ccc(F)cc3Cl)c2c1 [Example 60]
0.3 to 3 | NC(N)=NC(=O)c1ccc2cccc(-c3ccc(Cl)cc3Cl)c2c1 [Example 61]
0.3 to 3 | NC(N)=NC(=O)c1ccc2cccc(-c3cccnc3F)c2c1 [Example 62]
3 to 30 | COc1cc(-c2cccc3ccc(C(=O)N=C(N)N)cc23)c(Cl)cn1 [Example 63]
3 to 30 | CCOc1nccc(-c2cccc3ccc(C(=O)N=C(N)N)cc23)c1C#N [Example 64]
3 to 30 | NC(N)=NC(=O)c1ccc2cccc(-c3cc(F)ncc3Cl)c2c1 [Example 65]
0.3 to 3 | CCOc1ncc(Cl)c(-c2cccc3ccc(C(=O)N=C(N)N)cc23)c1F [Example 66]
0.3 to 3 | CCOc1ncc(Cl)c(-c2cccc3ccc(C(=O)N=C(N)N)cc23)c1Cl [Example 67]
0.3 to 3 | NC(N)=NC(=O)c1ccc2cccc(-c3cc(F)ccc3F)c2c1 [Example 68]
0.3 to 3 | NC(N)=NC(=O)c1ccc2cccc(-c3cccc(Cl)c3F)c2c1 [Example 69]
0.3 to 3 | NC(N)=NC(=O)c1ccc2cccc(-c3cc(Cl)ccc3F)c2c1 [Example 70]
0.3 to 3 | NC(N)=NC(=O)c1ccc2cccc(-c3cccc(F)c3F)c2c1 [Example 71]
3 to 30 | COc1ccc(-c2cccc3ccc(C(=O)N=C(N)N)cc23)c(C#N)c1 [Example 72]
0.3 to 3 | NC(N)=NC(=O)c1ccc2cccc(-c3cnccc3Cl)c2c1 [Example 73]
3 to 30 | NC(N)=NC(=O)c1ccc2cccc(-c3cncc(Cl)c3)c2c1 [Example 74]
0.3 to 3 | NC(N)=NC(=O)c1ccc2cccc(-c3cccc(Cl)c3Cl)c2c1 [Example 75]

More lines, now with the values behind:

Compound | Ki [nM]
N#Cc1ccc(-c2cccc3ccc(C(=O)N=C(N)N)cc23)cc1 [Example 2] | 0.3 to 3
COc1cc(C#N)ccc1-c1cccc2ccc(C(=O)N=C(N)N)cc12 [Example 3] | 0.3 to 3
COc1cc(F)ccc1-c1cccc2ccc(C(=O)N=C(N)N)cc12 [Example 4] | 0.3 to 3
COc1ccc(-c2cccc3ccc(C(=O)N=C(N)N)cc23)c(OC)c1 [Example 5] | 0.3 to 3
NC(N)=NC(=O)c1ccc2cccc(-c3ccccc3F)c2c1 [Example 6] | 0.3 to 3
NC(N)=NC(=O)c1ccc2cccc(-c3ccccc3Cl)c2c1 [Example 7] | 0.3 to 3
COc1ncccc1-c1cccc2ccc(C(=O)N=C(N)N)cc12 [Example 8] | 3 to 30
N#Cc1ccc(-c2c(F)ccc3ccc(C(=O)N=C(N)N)cc23)cc1 [Example 9] | 0.3 to 3
Cc1ccc2ccc(C(=O)N=C(N)N)cc2c1-c1ccc(C#N)cc1 [Example 10] | 0.3 to 3
Cc1ccc2ccc(C(=O)N=C(N)N)cc2c1-c1ccc(F)cc1 [Example 11] | 0.3 to 3
COc1ccc(-c2c(C)ccc3ccc(C(=O)N=C(N)N)cc23)cc1 [Example 12] | 0.3 to 3
NC(N)=NC(=O)c1ccc2cccc(-c3ccccc3O)c2c1 [Example 13] | 0.3 to 3
NC(N)=NC(=O)c1ccc2cccc(-c3c(F)cc(F)cc3F)c2c1 [Example 14] | 0.3 to 3
COc1ccc(C#N)cc1-c1cccc2ccc(C(=O)N=C(N)N)cc12 [Example 15] | 3 to 30
N#Cc1cc(F)ccc1-c1cccc2ccc(C(=O)N=C(N)N)cc12 [Example 16] | 3 to 30
Cc1nc(C)c(-c2cccc3ccc(C(=O)N=C(N)N)cc23)s1 [Example 17] | 3 to 30

Compound | Ki [nM]
COc1cccc(F)c1-c1cccc2ccc(C(=O)N=C(N)N)cc12 [Example 18] | 0.3 to 3
NC(N)=NC(=O)c1ccc2cccc(-c3cccnc3Cl)c2c1 [Example 19] | 3 to 30
N#Cc1ccccc1-c1cccc2ccc(C(=O)N=C(N)N)cc12 [Example 20] | 3 to 30
NC(N)=NC(=O)c1ccc2cccc(-c3cccnc3)c2c1 [Example 21] | 3 to 30
NC(N)=NC(=O)c1ccc2cccc(C3=CCOCC3)c2c1 [Example 22] | 3 to 30
NC(N)=NC(=O)c1ccc2cccc(-c3ccc(F)nc3)c2c1 [Example 23] | 3 to 30
Cc1ccc(-c2cccc3ccc(C(=O)N=C(N)N)cc23)cn1 [Example 24] | 3 to 30
NC(N)=NC(=O)c1ccc2cccc(-c3ccncc3F)c2c1 [Example 25] | 0.3 to 3
N#Cc1cccc(F)c1-c1cccc2ccc(C(=O)N=C(N)N)cc12 [Example 26] | 0.3 to 3
COc1c(F)cccc1-c1cccc2ccc(C(=O)N=C(N)N)cc12 [Example 27] | 3 to 30
NC(N)=NC(=O)c1ccc2cccc(-c3cccc4c3OCCO4)c2c1 [Example 28] | 3 to 30
N#Cc1c(F)cccc1-c1cccc2ccc(C(=O)N=C(N)N)cc12 [Example 29] | 3 to 30
COc1cccc(C#N)c1-c1cccc2ccc(C(=O)N=C(N)N)cc12 [Example 30] | 3 to 30
NC(N)=NC(=O)c1ccc2cccc(-c3c(F)cncc3F)c2c1 [Example 31] | 0.3 to 3
COc1cccc(Cl)c1-c1cccc2ccc(C(=O)N=C(N)N)cc12 [Example 32] | 0.3 to 3
